Assay results from patent US20090018134A1, “Compounds - 945” (AstraZeneca AB, priority 2007, published 2009).
Like-named read-outs stand apart in the source and are kept apart here.

Biological target: T1, mTOR (Homo sapiens, UniProt P42345)
T1 construct: FLAG; made in house
Test: In Vitro mTOR Kinase Assay (Echo), Test (a)(ii)
Assay type: biochemical
In short: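 AlphaScreen read-out: biotinylated substrate phosphorylation was detected with anti-p70 S6K (T389) 1A5 antibody, Protein A acceptor and streptavidin donor beads after overnight dark incubation at room temperature. Enzyme was FLAG-mTOR 1362-2549 from stable HEK293 cells.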

[1] = table of enzyme assay Test (a)(ii), read-out: Test (a)(ii) IC50

T1 sequence (P42345 1362-2549): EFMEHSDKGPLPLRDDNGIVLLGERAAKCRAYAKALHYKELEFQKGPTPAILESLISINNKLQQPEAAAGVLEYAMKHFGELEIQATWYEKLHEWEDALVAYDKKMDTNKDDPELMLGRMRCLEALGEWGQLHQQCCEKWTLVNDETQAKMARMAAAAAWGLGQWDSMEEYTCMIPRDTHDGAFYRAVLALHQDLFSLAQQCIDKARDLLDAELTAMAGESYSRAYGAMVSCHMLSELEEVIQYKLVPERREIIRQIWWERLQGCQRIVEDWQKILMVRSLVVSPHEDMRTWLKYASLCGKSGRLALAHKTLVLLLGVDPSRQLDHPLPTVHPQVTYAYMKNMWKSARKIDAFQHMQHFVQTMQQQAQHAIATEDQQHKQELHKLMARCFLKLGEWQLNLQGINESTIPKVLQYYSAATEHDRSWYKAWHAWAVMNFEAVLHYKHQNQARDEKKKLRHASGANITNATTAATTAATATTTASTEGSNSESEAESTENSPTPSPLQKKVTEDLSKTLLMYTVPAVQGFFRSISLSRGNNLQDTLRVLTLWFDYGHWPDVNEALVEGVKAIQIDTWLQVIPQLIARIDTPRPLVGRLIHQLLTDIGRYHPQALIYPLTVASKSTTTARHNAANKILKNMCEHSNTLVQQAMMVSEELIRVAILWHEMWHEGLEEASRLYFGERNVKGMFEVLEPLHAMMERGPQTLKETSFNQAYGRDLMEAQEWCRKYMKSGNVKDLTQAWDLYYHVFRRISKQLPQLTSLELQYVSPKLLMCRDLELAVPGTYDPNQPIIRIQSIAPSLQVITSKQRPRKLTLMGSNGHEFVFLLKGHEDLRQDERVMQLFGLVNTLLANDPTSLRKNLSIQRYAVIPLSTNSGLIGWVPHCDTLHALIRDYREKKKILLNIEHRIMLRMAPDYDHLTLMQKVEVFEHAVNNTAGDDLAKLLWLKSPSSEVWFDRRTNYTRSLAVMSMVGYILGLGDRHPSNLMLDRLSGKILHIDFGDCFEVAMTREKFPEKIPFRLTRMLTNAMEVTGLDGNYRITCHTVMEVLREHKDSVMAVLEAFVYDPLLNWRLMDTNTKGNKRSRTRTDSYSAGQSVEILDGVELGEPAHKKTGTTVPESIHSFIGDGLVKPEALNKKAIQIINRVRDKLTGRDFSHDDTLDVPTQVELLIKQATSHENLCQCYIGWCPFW

In the case of `C[C@H]1COCCN1c1cc(C2(S(=O)(=O)c3ccc(F)c(F)c3)CC2)nc(-c2ccc(NC(=O)NCCF)cc2)n1` [Example 64l, 1-[4-[4-[1-(3,4-difluorophenyl)sulfonylcyclopro-pyl]-6-[(3S)-3-methylmorpholin-4-yl]pyrimidin-2-yl]phenyl]-3-(2-fluoroethyl)urea], the IC50 [1] is reported as 1.11 nM.
`C[C@H]1COCCN1c1cc(C2(S(=O)(=O)c3cc(F)cc(F)c3)CC2)nc(-c2ccc(NC(=O)NCCN(C)C)cc2)n1` [Example 19f, 1-[4-[4-[1-(3,5-difluorophenyl)sulfonylcyclopro-pyl]-6-[(3S)-3-methylmorpholin-4-yl]pyrimidin-2-yl]phenyl]-3-(2-dimethylaminoethyl)urea] was tested, and the IC50 [1] was 80.4 nM.
In the case of `Cc1nn(C)cc1S(=O)(=O)C1(c2cc(N3CCOC[C@@H]3C)nc(-c3ccc(NC(=O)NCC(F)F)cc3)n2)CC1` [Example 55d, 3-(2,2-difluoroethyl)-1-[4-[4-[1-(1,3-dimethylpyrazol-4-yl)sulfonylcyclopropyl]-6-[(3S)-3-methylmorpholin-4-yl]pyrimidin-2-yl]phenyl]urea], the IC50 [1] is reported as 35.1 nM.
In the case of `CCNC(=O)Nc1ccc(-c2nc(N3CCOCC3)cc(C3(S(=O)(=O)c4ccccc4)CC3)n2)cc1` [Example 36dd, 3-[4-[4-[1-(benzenesulfonyl)cyclopropyl]-6-morpholin-4-ylpyrimidin-2-yl]phenyl]-1-ethylurea], the IC50 [1] is reported as 2.91 nM.
In the case of `Cc1csc(S(=O)(=O)C2(c3cc(N4CCOC[C@@H]4C)nc(-c4ccc(NC(=O)NC(C)(C)CO)cc4)n3)CC2)n1` [Example 25k, 3-(1-hydroxy-2-methylpropan-2-yl)-1-[4-[4-[(3S)-3-methylmorpholin-4-yl]-6-[1-[(4-methyl-1,3-thiazol-2-yl)sulfonyl]cyclopropyl]pyrimidin-2-yl]phenyl]urea], the IC50 [1] is reported as 2.92 nM.
For `CNC(=O)Nc1ccc(-c2nc(N3CCOC[C@@H]3C)cc(C3(S(=O)(=O)c4ccc(NC)cc4F)CC3)n2)cc1` [Example 57, 1-[4-[4-[1-(2-Fluoro-4-methylaminophenyl)sulfonylcyclopropyl]-6-[(3S)-3-methylmorpholin-4-yl]pyrimidin-2-yl]phenyl]-3-methylurea], the IC50 [1] was 11.9 nM.
Work on `CC(C)NC(=O)Nc1ccc(-c2nc(N3CCOC[C@@H]3C)cc(C3(S(=O)(=O)CCCO)CC3)n2)cc1` [Example 31, 1-[4-[4-[1-(3-Hydroxypropylsulfonyl)cyclopropyl]-6-[(3S)-3-methylmorpholin-4-yl]pyrimidin-2-yl]phenyl]-3-propan-2-ylurea] yielded an IC50 [1] of 4.52 nM.
Work on `C[C@H]1COCCN1c1cc(C2(S(C)(=O)=O)CC2)nc(-c2ccc(NC(=O)NCc3ncn[nH]3)cc2)n1` [Example 2ag, 1-[4-[4-[(3S)-3-methylmorpholin-4-yl]-6-(1-methylsulfonylcyclopropyl)pyrimidin-2-yl]phenyl]-3-(2H-1,2,4-triazol-3-ylmethyl)urea] yielded an IC50 (read-out: mTOR Kinase Assay (Echo)) of 14.9 nM.
`O=C(Nc1ccc(-c2nc(N3CCOCC3)cc(C3(S(=O)(=O)c4ccc(F)cc4)CC3)n2)cc1)Nc1ncns1` [Example 36an, 1-[4-[4-[1-(4-fluorophenyl)sulfonylcyclopropyl]-6-morpholin-4-ylpyrimidin-2-yl]phenyl]-3-(1,2,4-thiadiazol-5-yl)urea] gave an IC50 [1] of 10.4 nM.
`Cc1csc(S(=O)(=O)C2(c3cc(N4CCOC[C@@H]4C)nc(-c4ccc(NC(=O)NCc5ncc[nH]5)cc4)n3)CCC2)n1` [Example 98c, 3-(1H-imidazol-2-ylmethyl)-1-[4-[4-[(3S)-3-methylmorpholin-4-yl]-6-[1-[(4-methyl-1,3-thiazol-2-yl)sulfonyl]cyclobutyl]pyrimidin-2-yl]phenyl]urea] gave an IC50 [1] of 26.7 nM.
In the case of `CCCNC(=O)Nc1ccc(-c2nc(N3CCOC[C@@H]3C)cc(C3(S(=O)(=O)c4nc(C)cs4)CC3)n2)cc1` [Example 25h, 3-[4-[4-[(3S)-3-methylmorpholin-4-yl]-6-[1-[(4-methyl-1,3-thiazol-2-yl)sulfonyl]cyclopropyl]pyrimidin-2-yl]phenyl]-1-propylurea], the IC50 [1] is reported as 0.993 nM.
